According to patent publication US20100291584A1, “MICROFLUIDIC IMAGING CYTOMETRY” (The Regents of the University of California, priority 2008, published 2010):

How the values were obtained:
mTOR = mTOR (Homo sapiens, UniProt P42345+P62942); settings: glioblastoma patients
[1] = tested on: recurrent malignant gliomas; test: Clinical trial of Avastin (in combination with CPT-11) in patients with recurrent malignant gliomas; format: in vivo, human
From the text: The obvious clinical efficacy of avastin will most certainly change the standard of care for malignant glioma patients. […] We will address the following questions: 1) does increased vascularity predispose towards clinical response to avastin (this will be done in collaboration with Dr. Luisa Iruela-Arispe, a noted expert in angiogenesis at UCLA); 2) are the downstream signaling pathways regulated by VEGF reactivated during response and by what mechanism. Are tumors which are driven by key pathways that promote VEGF expression (i.e. EGFR/PI3K signaling) more sensitive to avastin? In addition to testing lese specific hypotheses, we will apply global screening strategies. These include array CGH to detect chromosomal regions of interest associated with sensitivity and resistance (will be done at MSKCC by Dr. Mellinghoff) and integrated with global gene expression data (done both at UCLA and at MSKCC), in addition, through our NanoSystems Biology Cancer Center, we have begun collaboration with Dr. Lee Hood to use surface Plasmon resonance to facilitate the quantitative detection of thousands of proteins in a serum samples. This will enable us to identify protein signatures associated with sensitivity and acquired resistance.

U87-PTEN cells = test: 2-NBDG glucose analog uptake on chip; format: cell-based, human; settings: 20 min incubation in HBSS
Method: (§1) To monitor glucose uptake in U87 cells, a fluorescent deoxyglucose (2-[N-(7-nitrobenz-2-oxa-1,3-diaxol-4-yl)amino]-2-deoxyglucose; 2-NBDG)^72,73 was used and monitored the 2-NBDG uptake by U87 and U87-PTEN cells (FIG. 6). After cells were loaded into a chip, culture medium was washed with Hanks' balanced salt solution (HBSS) with CaCl2. Then, 2-NBDG in HBSS was loaded into a cell chamber and incubated for 20 min in an incubator.

U87 cells = test: 2-NBDG glucose analog uptake on chip; format: cell-based, human; settings: 20 min incubation in HBSS
Method: as §1

CO[C@H]1C[C@@H]2CC[C@@H](C)[C@@](O)(O2)C(=O)C(=O)N2CCCC[C@H]2C(=O)O[C@H]([C@H](C)C[C@@H]2CC[C@@H](O)[C@H](OC)C2)CC(=O)[C@H](C)/C=C(\C)[C@@H](O)[C@@H](OC)C(=O)[C@H](C)C[C@H](C)/C=C/C=C/C=C/1C [rapamycin]
rapamycin level in tumor tissue in vivo (mTOR): present in potentially therapeutic levels | extent of mTOR pathway inhibition (mTOR; in vivo, variable between patients): 10%-80%

Avastin: VEGF inhibitor, given in combination with CPT-11
median time to tumor progression ([1]; Avastin with CPT-11, 95% CI=122-272, comparator median 56 days): 209 days | median overall survival ([1]; Avastin with CPT-11, 95% CI=251-424, comparator median 184 days): 340 days

O=[N+]([O-])c1ccc(N[C@H]2C(O)O[C@H](CO)[C@@H](O)[C@@H]2O)c2nonc12 (stereo partly drawn) [2-NBDG, 2-[N-(7-nitrobenz-2-oxa-1,3-diaxol-4-yl)amino]-2-deoxyglucose]
fluorescent signal of 2-NBDG uptake (U87-PTEN cells): could not be detected | fluorescent signal of 2-NBDG uptake (U87 cells): signals of 2-NBDG were observed
